Common to all, as to format: ADME, organism-based
Data set [1] in a line: Volume of distribution at steady state in Sprague-Dawley rat at 1 mg/kg, iv. The arrangement: dose 1 mg/kg, route intravenous. The note with it: in vivo, read-out: Vdss.
The nature of data set [2]: Oral bioavailability in Sprague-Dawley rat at 2 mg/kg. Particulars: in vivo.
A short description of data set [3]: Cmax in Sprague-Dawley rat at 2 mg/kg, po. The arrangement: dose 2 mg/kg, route oral. The note with it: in vivo.
Data set [4] in a line: AUC in Sprague-Dawley rat at 2 mg/kg, po. The arrangement: dose 2 mg/kg, route oral. The note with it: plasma.

Molecules are shown by their SMILES.

Broadly, the bioavailability is dose-corrected exposure relative to a reference, in per cent. Low values mean little systemic uptake, high ones much systemic uptake. By Cmax is commonly meant the highest concentration seen after dosing. A word on the AUC: it is the area under the concentration-time curve, a measure of exposure. Turning to `COc1ccc2c(c1)CC(c1nc3ccc(-c4cn[nH]c4)cc3c(=O)[nH]1)CO2` (centres undefined), the Vd in data set [1] was 0.27 L/kg. In data set [2], the bioavailability was determined as 66%. The highest level in data set [3] (Cmax) was 8000 nM. Moreover, the area under the curve (AUC) in data set [4] was 43.4 µM·h.

With `COc1ccc2c(c1)C[C@H](c1nc3ccc(-c4cn[nH]c4)cc3c(=O)[nH]1)CO2`, in data set [1], the Vd came out at 0.14 L/kg. In data set [2], this molecule displayed a bioavailability of 46%. Moreover, in data set [3], the peak level (Cmax) was 2850 nM. In data set [4], the AUC came to 63.2 µM·h.

Regarding `COc1ccc2c(c1)C[C@@H](c1nc3ccc(-c4cn[nH]c4)cc3c(=O)[nH]1)CO2`, the Vd in data set [1] was determined as 0.49 L/kg. In data set [2], the bioavailability is 13%. The molecule further returned a Cmax in data set [3] of 580 nM. For the same molecule, the AUC in data set [4] was 2.36 µM·h.

As for `COc1ccc2c(c1)CC(c1nc3c(OC)cc(-c4cn[nH]c4)cc3c(=O)[nH]1)CO2` (centres undefined), the Vd in data set [1] is 0.1 L/kg. This molecule also came in with a bioavailability in data set [2] of 26%. In data set [3], this molecule registered a Cmax of 4600 nM. The molecule also gave an AUC in data set [4] of 87.9 µM·h.

With `COc1ccc2c(c1)CC(c1nc3c(OCCN(C)C)cc(-c4cn[nH]c4)cc3c(=O)[nH]1)CO2` (centres undefined), in data set [1], the Vd was 1.3 L/kg. For the same molecule, in data set [2], the bioavailability turned out to be 3%. For the same molecule, the maximum concentration (Cmax) in data set [3] turned out to be 50 nM. This molecule had an AUC in data set [4] of 0.15 µM·h.

Turning to `COc1cccc(OCc2nc3c(OC)cc(-c4cn[nH]c4)cc3c(=O)[nH]2)c1`, the Vd in data set [1] stood at 0.22 L/kg. For the same molecule, in data set [2], the bioavailability amounted to 15%. In data set [3], the peak level (Cmax) was 660 nM. The molecule further showed an AUC in data set [4] of 9.63 µM·h.
